Values joined by “and” are separate entries in the source; they are usually repeats but may differ in a detail not shown here. Equal values may be shown once. Where a name gives a salt, the structure may show the parent alone. Read-outs that look alike come from different tables or passages of the source. Marks after values point to notes of the source that are not given here.
Columns and labels:
AChE [1] = target: T1, AChE (Electrophorus electricus, UniProt O42275); assay: CD spectra, secondary structure of AChE
T1 construct: purchased Sigma-Aldrich Co. (St. Louis, MO, USA)
T1 sequence (O42275 24-633): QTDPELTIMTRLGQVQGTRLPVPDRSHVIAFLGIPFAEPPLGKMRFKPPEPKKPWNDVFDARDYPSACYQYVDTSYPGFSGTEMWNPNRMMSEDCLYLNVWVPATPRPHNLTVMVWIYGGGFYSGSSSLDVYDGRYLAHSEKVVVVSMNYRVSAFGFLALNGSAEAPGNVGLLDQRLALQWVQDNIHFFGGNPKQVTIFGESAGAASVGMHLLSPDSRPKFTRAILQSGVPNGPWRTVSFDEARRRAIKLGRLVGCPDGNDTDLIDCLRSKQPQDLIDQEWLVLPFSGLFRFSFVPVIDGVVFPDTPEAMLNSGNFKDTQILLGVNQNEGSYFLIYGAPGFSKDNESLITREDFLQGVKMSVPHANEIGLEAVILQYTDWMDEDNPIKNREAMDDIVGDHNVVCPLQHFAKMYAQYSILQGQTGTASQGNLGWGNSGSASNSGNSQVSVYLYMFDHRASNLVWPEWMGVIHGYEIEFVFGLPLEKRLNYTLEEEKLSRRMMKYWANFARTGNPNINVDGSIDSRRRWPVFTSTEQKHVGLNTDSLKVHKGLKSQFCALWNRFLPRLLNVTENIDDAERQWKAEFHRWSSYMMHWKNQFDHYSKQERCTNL
From the text: The MOS 450 CD spectrometer (Bio-Logic, Claix, France) was used to measure the CD spectra for AChE solution at 190 to 250 nm under ambient temperature. […] The method to analyze the content of specific secondary structures has been reported in our previous study.

AChE [2] = details: cited from earlier work
AChE [3] = target: T1, AChE; assay: Inhibitory type kinetics analysis (reversibility plots, Lineweaver-Burk); format: biochemical
Protocol: The type of inhibition was determined using the Lineweaver-Burk plot in double reciprocal form.

AChE [4] = target: T1, AChE; assay: Fluorescence quenching of AChE; format: binding
Protocol: After each drop, the solution was mixed and left for 3 min to balance the solution. The fluorescence emission spectra at 290 to 450 nm were scanned at an excitation wavelength of 280 nm, with emission and excitation slot widths of 2.5 nm.

PC12 cells [5] = assay: Quercetin-induced toxicity in PC12 cells (MTT); details: 1–80 µM, 24 h, n = 6
Protocol: (§1) PC12 cells were procured from Nanjing KeyGen Biotech Co. Ltd. (Nanjing, China). The cells were maintained in high-glucose DMEM containing 10% fetal bovine serum (FBS) and 1% P-S and incubated under 5% CO2 and 37 °C. PC12 cells in the logarithmic phase were seeded in 96-well (approximately 2 × 10^4/well) or 24-well (approximately 1 × 10^5/well) culture plates, incubated for 24 h, followed by the replacement of the medium.

AChE [6] = target: T1, AChE; assay: Time-course inactivation kinetics of AChE; format: biochemical; details: for Transition Free Energy Change ΔΔG°: ΔΔG° = −RTlnk
Protocol: We determined enzyme activities at diverse contents every 3 min for 0–30 min and every 5 min for 30–70 min.

[7] = test system: Aβ25–35-induced PC12 cells; assay: MDA content in Aβ25–35-induced PC12 cells; format: cell-based; details: quercetin pretreatment (1–40 µM), 20 µM Aβ25–35 24 h; p < 0.01 relative to the model group
Protocol: (§2) Each group was provided with six duplicate wells based on different measurement indexes.
(§3) For cell culture and grouping sample addition, please refer to Section 2.9. After incubation, the culture plate was centrifuged at 200× g for 5 min using a plate centrifuge, and the supernatant was discarded. Next, the cells were collected and broken by ultrasound and centrifuged at 3000 r/min at 4 °C for l0 min, and the supernatant was collected for subsequent assays. The OD was recorded at 532 and 405 nm, respectively, following the instructions mentioned in the manual for the MDA and GSH kits. Intracellular MDA content and GSH levels are expressed as percentages of the control.

[8] = test system: Aβ25–35-induced PC12 cells; assay: Aβ25–35-induced PC12 cell viability (MTT); details: then 20 µM Aβ25–35 24 h, model group 51.43 ± 2.61
Protocol: as §1, §2
PC12 cells were inoculated in 96-well plates for 24 h.

[9] = test system: Aβ25–35-induced PC12 cells; assay: GSH level in Aβ25–35-induced PC12 cells; format: cell-based
Protocol: as §2, §3

PC12 cells [10] = details: 10 µM; ref 54 (Liu et al.); cited from earlier work
[11] = molar ratio quercetin:AChE 10:1

## O=c1c(O)c(-c2ccc(O)c(O)c2)oc2cc(O)cc(O)c12 [quercetin, 3,3′,4′,5,7-pentahydroxyflavone]
AChE [1]; molar ratio quercetin:AChE 2:1, free AChE 18.62 ± 0.06
  β-Sheet of AChE: […]
AChE [1]; molar ratio quercetin:AChE 2:1, free AChE 19.18 ± 0.28
  β-Turn of AChE: […]
AChE [1]; molar ratio quercetin:AChE 2:1, free AChE 28.02 ± 0.65
  Random Coil of AChE: […]
AChE [1]; molar ratio quercetin:AChE 2:1, free AChE 34.35 ± 0.74
  α-Helix of AChE: […]
AChE [1]; molar ratio quercetin:AChE 6:1
  Random Coil of AChE: […]
  β-Sheet of AChE: […]
  β-Turn of AChE: […]
AChE [1]; [11]
  Random Coil of AChE: […]
  α-Helix of AChE: […]
  β-Sheet of AChE: […]
  β-Turn of AChE: […]
AChE [2]; reported by Jung
  IC50: […]
AChE [2]; reported by Khan
  IC50: […]
AChE [3]; Lineweaver–Burk, c(AChE) = 0.57 nM, quercetin 0–12.0 µM
  type of inhibition: mixed inhibitory type
AChE [3]; plots of v versus [AChE], c(ATCI) = 0.25 mM, quercetin 0–8.0 µM
  reversibility of inhibition: reversible inhibitor
AChE [3]; secondary plot of Lineweaver–Burk y-intercepts
  αKi (binding to AChE–ATCI complex): […]
AChE [4]; 25, 31 and 37 °C
  bimolecular quenching rate constant Kq, magnitude order: […]
AChE [4]; 25 °C
  Gibbs free energy ∆G°: […]
  binding site quantity n: […]
AChE [4]; 25 °C, pH 7.6
  quenching constant KSV: […]
AChE [4]; 31 °C
  Gibbs free energy ∆G°: […]
  binding site quantity n: […]
  quenching constant KSV: […]
AChE [4]; 37 °C
  Gibbs free energy ∆G°: […]
  binding site quantity n: […]
  quenching constant KSV: […]
AChE [4]; van't Hoff equation, 25–37 °C
  enthalpy change ∆H°: […]
  entropy change ∆S°: […]
PC12 cells [5]
  cytotoxicity (cell viability, MTT): no toxic effect
AChE [6]; quercetin 1.5 µM
  Inactivation Rate Constant k: […]
  Transition Free Energy Change ΔΔG°: […]
AChE [6]; quercetin 3.0 µM
  Inactivation Rate Constant k: […]
  Transition Free Energy Change ΔΔG°: […]
AChE [6]; quercetin 6.0 µM
  Inactivation Rate Constant k: […]
  Transition Free Energy Change ΔΔG°: […]
AChE [6]; quercetin 15.0 µM
  Inactivation Rate Constant k: […]
  Transition Free Energy Change ΔΔG°: […]
[7]
  release of MDA: inhibited
[8]; pretreatment 1 µM
  cell viability, % of the control group: […]
[8]; pretreatment 10 µM
  cell viability, % of the control group: […]
[8]; pretreatment 20 µM
  cell viability, % of the control group: […]
[8]; pretreatment 40 µM
  cell viability, % of the control group: 78.61 ± 3.26%
[8]; pretreatment 80 µM
  cell viability, % of the control group: […]
[9]; 1 µM pretreatment, p > 0.05
  GSH levels versus model group: no statistical difference
[9]; 10, 20, and 40 µM pretreatment, dose-dependent
  intracellular GSH levels versus model group: increased

## O=C1c2c(O)cc(O)cc2OC(c2ccc(O)c(O)c2)C1O (stereo not drawn) [taxifolin, reference compound]
AChE [2]
  IC50: 54 ± 1.58 µM

## C[C@@H]1O[C@@H](Oc2c(-c3ccc(O)c(O)c3)oc3cc(O)cc(O)c3c2=O)[C@H](O)[C@H](O)[C@H]1O [quercitrin, reference compound]
AChE [2]; no reference at the value itself
  IC50: 94.5 µM

## COc1ccc2c3c1O[C@H]1C[C@@H](O)C=C[C@@]31CCN(C)C2 [galantamine hydrobromide]
PC12 cells [10]
  protection of cells against Aβ25–35 neurotoxicity: significantly protected

Source: paper PMC9699400 (Molecules, 2022)
